This is an account of results in PMC3246456, “An Immunoassay for Dibutyl Phthalate Based on Direct Hapten Linkage to the Polystyrene Surface of Microtiter Plates” (PLoS ONE, 2011).

In experiment [1] the test system is anti-DBP MAb. Put plainly: Hapten coated icELISA (DBAP directly linked to polystyrene). It counts as binding, mouse. The settings on record: for CR (cross-reactivity): CR (%) = IC50 DBP/IC50 analogue×100; for inhibition: at 10 mg/mL; for antibody recognition: specificity of MAb. On the procedure:
(§1) An icELISA was used to assess the sensitivity of the MAb to free DBP and the cross-reactivities of structurally related compounds to the antibody. For competition, 50 µL of standards or diluted samples in assay buffer were placed in the wells, and 50 µL of the anti-DBP MAb diluted with assay buffer was added. After incubated for 1.5 h at 25°C, the plate was washed. The following procedure was followed as described for the inELISA. […] Standards and samples were run in triplicate wells, and the mean absorbance values were processed. Standard curves were obtained by plotting absorbance against the logarithm of analyte concentration and fitted with a logistic four-parameter equation y = (A−D)/[1+(x/C)^B]+D, where A is the absorbance value with no analyte present, B is the slope near the midpoint inhibition concentration, C is the concentration of analyte giving 50% inhibition (IC50), and D is the minimum absorbance value at infinite concentration of the analyte, [21]. Dynamic range was established between the concentrations producing 20% and 80% inhibition (IC20–IC80 or 80%–20% of the maximum response). Limit of detection (LOD) was determined as the concentration corresponding to 10% inhibitory concentration (IC10 or 90% of the maximum response) [22]–[24].
Polystyrene surface was first carboxylated by permanganate oxidation. Microwells were filled with a solution of 5% KMnO4 in 0.6 mol/L H2SO4 (150 µL/well) for 60 min at 60°C. The plates were washed with 6 mol/L HCl (3×5 min, 200 µL/well) to remove the brown manganese oxide and rinsed three times with distilled water giving polystyrene-COOH microwells [25]. Then 150 µL of EDC and hapten DBAP in 0.1 mol/L MES buffer (pH 5.0) were placed in the wells and incubated overnight under shaking (Fig. 2). The subsequent procedures were the same as conjugate coated inELISA or icELISA under optimal condition. The essential steps in direct attachment of hapten DBAP to polystyrene surface such as concentrations of EDC and conjugation temperatures were determined by the amount of antibody on the modified polystyrene surface measured by inELISA with coating concentration of 2 µg/mL DBAP and MAb dilution of 1∶2000. The optimal coating concentration of DBAP and dilution of MAb were determined by checkerboard titration.
To determine the specificity of MAb produced, the ability of the MAb to recognize several structurally related compounds (analogues) was tested by performing hapten coated icELISA and determining their respective IC50 values. The cross-reactivity (CR) values were calculated according to the following equation CR (%) = IC50 DBP/IC50 analogue×100 [23], [26].

The subject of a further experiment is MAb. Kind of experiment: Binding of MAb to hapten linked on polystyrene surface. Set-up: species or system mouse. The conditions noted are these: carboxylated hapten linked to polystyrene surface; absorbance at 492 nm too low. The source says: Although methods had already been reported for linking hapten to polystyrene surface, [11], it was not applicable to the hapten coated ELISA for DBP because the MAb produced hardly bound to the carboxylated hapten DBCP on polystyrene (The absorbance value at 492 nm was too low.). Thus it was needed to immobilize the aminated hapten DBAP to the surface of polystyrene. Holthues et al had linked an aminated hapten ABA–atrazine to a glutaraldehyde polymer network directly bound to polystyrene surface and developed very sensitive ELISA to detect terbutryn. However, it was a failure to establish hapten coated ELISA for DBP based on covalently linking DBAP to a glutaraldehyde polymer network on polystyrene surface. […] The hapten coated format presented is proposed as generally applicable, because the carboxyl on modified microtiter plate surface enables stable immobilization of aminated or hydroxylated hapten through EDC.

A further experiment concerns polyclonal antibody. Set-up: method as in PMID 16947007. The conditions noted are these: cited from earlier work.
In experiment [2] the test system is anti-DBP MAb. Put plainly: Conjugate coated indirect competitive ELISA (icELISA), DBAP-BSA coated. In kind it is binding, mouse. As for the experimental part:
Checkerboard titration, in which purified MAb was titrated against varying amounts of the coating hapten-conjugate was used to measure the reactivity of antibodies and to select an appropriate coating concentrations and antibody dilutions for icELISA [19]. The checkerboard assays were performed with inELISA. Microtiter plates were coated with 100 µL/well of hapten-protein conjugates (0, 0.125, 0.25, 0.5, and 1 µg/mL) in 0.05 mol/L carbonate buffer (pH 9.6) and incubated overnight at 4°C. The plates were washed three times with PBST (0.01 mol/L PBS containing 0.05% Tween-20, pH 7.4, 200 µL/well) and were blocked with 3% (w/v) skim milk powder (SMP) in PBS (250 µL/well) for 1 h at 37°C. After another washing step, 100 µL/well of purified anti-DBP MAb (1∶1000, 1∶2000, 1∶4000, 1∶8000, 1∶16000, and 1∶32000) diluted in PBS containing 0.1% BSA was added. After incubation for 1.5 h at 25°C, the plates were washed. Subsequently, the plates were incubated for 1 h at 37°C with 10000-fold diluted HRP-anti-mIgG in PBS containing 0.1% BSA (100 µL/well). After another washing step, 100 µL/well of freshly prepared O-phenylenediamine (OPD) solution (0.4 mg/mL OPD and 0.012% H2O2 in 0.05 mol/L citrate-phosphate, pH 5.0) was added. The reaction was stopped with 2 mol/L sulfuric acid (50 µL/well) after an incubation of 15 min at room temperature keeping away from light. The absorbance was recorded at a primary wavelength of 492 nm with a reference wavelength of 630 nm.
as §1
The influence of several experimental parameters on assay characteristics was examined in order to improve the sensitivity of the immunoassay. Concentrations of coating antigen and dilutions of MAb were determined by checkerboard titration. Other different experimental parameters such as organic solvents, pH, ionic strength, and detergent in assay buffer, and blocking agents were studied sequentially in this order using the above described icELISA protocol. Each time an evaluated parameter was changed, the new value was used for the evaluation of the next condition. Criteria used to evaluate the assay performances were the absorbance of zero concentration of DBP (Amax) and IC50.

The test system of experiment [3] is antibodies in hybridoma culture supernatants. Kind of experiment: Hybridoma screening by icELISA with 1 µg/mL DBAP-BSA. It counts as binding, mouse. The conditions noted are these: three competitive clones of 352 wells; coated antigen 1 µg/mL DBAP-BSA. As for the experimental part:
SP 2/0 murine myeloma cells were cultured in DMEM supplemented with 15% fetal bovine serum and 1% penicillin–streptomycin. Cell fusion and hybridoma culture procedures were carried out essentially as described by James. Mice splenocytes were mixed with SP 2/0 cells at the ratio of 5∶1 and centrifuged at 450 g for 5 min. One milliliters of polyethylene glycol solution at 37°C was dropped to the cell pellet over 1 min. The cell pellet was rotated for further 1 min, then 1 mL of DMEM added over 1 min, 2 mL of DMEM over 2 min. Finally, 12 mL was added over 2 min. After centrifugation at 450 g for 5 min, the cells were pelleted again, resuspended in HAT medium (DMEM containing 15% fetal bovine serum, 1% penicillin–streptomycin and 2% HAT media supplement) and plated into 96-well plates in which normal mouse peritoneal exudate cells (as feeder cells) had already been cultured 1 day before fusion. The colonies were fed every fifth day with freshly prepared HAT medium. […] The ratio of both absorbances was used as the criterion for selecting the best antibody-secreting clones. […]
An icELISA was used to assess the sensitivity of the MAb to free DBP and the cross-reactivities of structurally related compounds to the antibody. […] Standards and samples were run in triplicate wells, and the mean absorbance values were processed. […]

Where [4] appears, read: cross-reactivity study, hapten coated icELISA, mean ±SD of three replicates.
The mark [5] stands for this setting: hapten coated icELISA, optimized conditions.
Where [6] appears, read: conjugate coated icELISA, optimized conditions.

Where only a bound is given, the exact number is not on record here.

With `CCCCOC(=O)c1ccccc1C(=O)OCc1ccccc1` [BBP, Butyl benzyl phthalate], the IC50 in the experiment on anti-DBP MAb [1] (setting [4]) amounted to 72.1 ± 14.2 ng/mL.
With `CCCCOC(=O)c1ccc(N)cc1C(=O)OCCCC` [DBAP, dibutyl 4-aminophthalate], the “CR (cross-reactivity)” value in the experiment with anti-DBP MAb [1] (hapten coated icELISA) came out at 27.8%. In addition, the 50% inhibitory concentration (IC50) in the experiment with anti-DBP MAb [1] (setting [4]) came out at 52.9 ± 12.4 ng/mL.
On to `CCCCOC(=O)c1ccc(NC(=O)CCC(=O)O)cc1C(=O)OCCCC` [DBCP], for which, in the experiment with MAb, the “binding of MAb to hapten on polystyrene” value is recorded as “hardly bound”.
Turning to `CCCCOC(=O)c1ccccc1C(=O)OCCCC` [DBP, Dibutyl phthalate], the “limit of detection (LOD)” value in the experiment on polyclonal antibody (as stated by Zhang et al) was 0.02 µg/L. For the same molecule, in the experiment with polyclonal antibody (maximum concentration used did not cause 50% quenching), the “concentration causing 50% of the maximal fluorescence quenching” value was greater than 1000 µg/L. The “CR (cross-reactivity)” value with anti-DBP MAb [1] (hapten coated icELISA) was 100%. Moreover, the IC50 stood at 14.7 ± 2.8 ng/mL in the experiment with anti-DBP MAb [1] (setting [4]); 14.6 ng/mL in the experiment on anti-DBP MAb [1] (hapten coated icELISA standard curve, optimized conditions (DBAP 1 µg/mL, MAb 1:1000)); 369 ± 27.4 ng/mL in the experiment on anti-DBP MAb [2] (assay buffer with 0% DMF (DMF series) in PBS containing 0.1% BSA, mean ±SD, three replicates); 392 ± 70.2 ng/mL with anti-DBP MAb [2] (assay buffer with 0% DMSO (DMSO series) in PBS containing 0.1% BSA, mean ±SD, three replicates); 471 ± 30.6 ng/mL in the experiment on anti-DBP MAb [2] (assay buffer with 0% acetonitrile (acetonitrile series) in PBS containing 0.1% BSA, mean ±SD, three replicates); 797 ± 19.8 ng/mL in the experiment with anti-DBP MAb [2] (assay buffer with 0% dioxane (dioxane series) in PBS containing 0.1% BSA, mean ±SD, three replicates). Besides, the IC50 in the experiment with anti-DBP MAb [2] (assay buffer with 0% methanol (methanol series) in PBS containing 0.1% BSA, mean ±SD, three replicates) worked out at 1400 ± 64.3 ng/mL; in the experiment with anti-DBP MAb [2] (assay buffer with 5% DMF in PBS containing 0.1% BSA, mean ±SD, three replicates) it was 303 ± 30.2 ng/mL; in the experiment with anti-DBP MAb [2] (assay buffer with 5% DMSO in PBS containing 0.1% BSA, mean ±SD, three replicates), 373 ± 31.8 ng/mL; in the experiment with anti-DBP MAb [2] (assay buffer with 5% acetonitrile in PBS containing 0.1% BSA, mean ±SD, three replicates), 444 ± 11.8 ng/mL; in the experiment on anti-DBP MAb [2] (assay buffer with 5% dioxane in PBS containing 0.1% BSA, mean ±SD, three replicates), 1679 ± 271 ng/mL; in the experiment on anti-DBP MAb [2] (assay buffer with 5% methanol in PBS containing 0.1% BSA, mean ±SD, three replicates) it was 637 ± 67.1 ng/mL. In addition, the IC50 stood at 223 ± 11.8 ng/mL in the experiment with anti-DBP MAb [2] (assay buffer with 10% DMF in PBS containing 0.1% BSA, mean ±SD, three replicates); 520 ± 66.1 ng/mL in the experiment on anti-DBP MAb [2] (assay buffer with 10% DMSO in PBS containing 0.1% BSA, mean ±SD, three replicates); 325 ± 8.8 ng/mL in the experiment with anti-DBP MAb [2] (assay buffer with 10% acetonitrile in PBS containing 0.1% BSA, mean ±SD, three replicates); 2509 ± 504 ng/mL in the experiment on anti-DBP MAb [2] (assay buffer with 10% dioxane in PBS containing 0.1% BSA, mean ±SD, three replicates); 624 ± 14.5 ng/mL in the experiment with anti-DBP MAb [2] (assay buffer with 10% methanol in PBS containing 0.1% BSA, mean ±SD, three replicates); 345 ± 17.5 ng/mL in the experiment with anti-DBP MAb [2] (assay buffer with 20% DMF in PBS containing 0.1% BSA, mean ±SD, three replicates). Moreover, the IC50 was 423 ± 53.0 ng/mL with anti-DBP MAb [2] (assay buffer with 20% DMSO in PBS containing 0.1% BSA, mean ±SD, three replicates); 428 ± 11.2 ng/mL in the experiment with anti-DBP MAb [2] (assay buffer with 20% acetonitrile in PBS containing 0.1% BSA, mean ±SD, three replicates); 2191 ± 224 ng/mL in the experiment with anti-DBP MAb [2] (assay buffer with 20% dioxane in PBS containing 0.1% BSA, mean ±SD, three replicates); 889 ± 18.6 ng/mL in the experiment with anti-DBP MAb [2] (assay buffer with 20% methanol in PBS containing 0.1% BSA, mean ±SD, three replicates); 106 ng/mL in the experiment with anti-DBP MAb [2] (conjugate coated icELISA standard curve, optimized conditions (DBAP-BSA 0.25 µg/mL, MAb 1:8000)); less than 5 µg/mL in experiment [3]. In addition, the “LOD (IC10)” value in the experiment on anti-DBP MAb [1] (setting [5]) is listed as 0.426 ng/mL; in the experiment on anti-DBP MAb [2] (setting [6]), 10.5 ng/mL. Further, the “dynamic range (IC20–IC80)” value with anti-DBP MAb [1] (setting [5]) lay within 1.74 to 123 ng/mL; in the experiment on anti-DBP MAb [2] (setting [6]) it was 25.2 to 445 ng/mL. Also, the “IC50 (blocking agent optimization)” value in the experiment on anti-DBP MAb [2] (OVA as a blocking reagent (Fig. 4D)) was 108.13 ± 19.52 ng/mL. Further, the “IC50 (lowest, pH optimization)” value with anti-DBP MAb [2] (assay buffer pH 6.8 (Fig. 4A)) is reported as 177.04±15.37 ng/mL.
As to `CCCCC(CC)COC(=O)c1ccccc1C(=O)OCC(CC)CCCC` (stereo not drawn) [DEHP, di(2-ethylhexyl) phthalate], in the experiment on anti-DBP MAb [1] (hapten coated icELISA), the inhibition is on record as 1.12% inhibition at 10 mg/mL and the antibody recognition entry is listed as “absence of recognition”.
The corresponding values for `CCOC(=O)c1ccccc1C(=O)OCC` [DEP, diethyl phthalate] are 5.08% inhibition at 10 mg/mL and “absence of recognition”.
The corresponding values for `COC(=O)c1ccccc1C(=O)OC` [DMP, dimethyl phthalate] are 7.98% inhibition at 10 mg/mL and “absence of recognition”.
The corresponding values for `CCCCCCCCOC(=O)c1ccccc1C(=O)OCCCCCCCC` [DOP, di(n-octyl) phthalate] are 1.15% inhibition at 10 mg/mL and “absence of recognition”.
